Reference: patent US11655238B2 (priority 2018, dated 2023)
In brackets after ≈: the same amount, converted by molar mass.

Key:
[1] = system: Mycobacterium tuberculosis (H37Rv); conditions: reports, in words; cited from earlier work
[2] = system: Mycobacterium tuberculosis H37Ra strain; experiment: microbe, parasite or virus in culture; format: cell-based; conditions: for MIC: Mycobacterium tuberculosis, H37RA, 168 h, read-out: MIC (μg/mL) Mycobacterium tuberculosis H37Ra
[3] = system: Mycobacterium bovis BCG strain; experiment: microbe, parasite or virus in culture; format: cell-based; conditions: for MIC: Mycobacterium tuberculosis variant bovis BCG, BCG, 168 h, read-out: MIC (μg/mL) Mycobacterium bovis BCG, BCG strain, 7H9 medium, 37° C., 168 hours, resazurin
[4] = system: Mycobacterium smegmatis strain (mc2155); experiment: Resazurin microplate MIC on Mycobacterium smegmatis; format: cell-based; conditions: for MIC: Mycolicibacterium smegmatis, MC2155, 48 h, read-out: MIC (μg/mL) Mycobacterium smegmatis
[5] = mc2155, 7H9 medium, 37° C., 48 hours, resazurin

Row | Structure (SMILES) | effect against Mycobacterium tuberculosis (H37Rv) [1] | MIC (μg/mL) Mycobacterium tuberculosis H37Ra [2] [µg/mL] | MIC [2] [µg/mL] | MIC (μg/mL) Mycobacterium bovis BCG ([3]; BCG strain, 7H9 medium, 37° C., 168 hours, resazurin) [µg/mL] | MIC [3] [µg/mL] | MIC [4, 5] [µg/mL] | MIC (μg/mL) Mycobacterium smegmatis [4, 5] [µg/mL] | inhibitory effect on H37Ra strain (summary of Table 2) [2] | inhibitory effect on BCG strain (summary of Table 2) ([3]; in words) | inhibitory effect on smegmatis strain (summary of Table 2) [4]
1 | Cc1c(C(=O)NN2CCCCC2)nn(-c2ccc(Cl)cc2Cl)c1-c1ccc(Cl)cc1 [Rimonabant, rimonabant, reference compound] | significant effect | 16.99 (≈ 36.6 µM) | 17 (≈ 36.6 µM) | 33.99 (≈ 73.3 µM) | 34 (≈ 73.3 µM) | 17 (≈ 36.6 µM) | 16.99 (≈ 36.6 µM) |  |  | 
2 | Cc1c(C(=O)NCCCNC2C3CC4CC(C3)CC2C4)nn(-c2ccc(Cl)cc2Cl)c1-c1ccc(Cl)cc1 (stereo not shown) [Compound 18, N-(3-(((1r,3r,5r,7r)-adamantan-2-yl)amino)propyl)-5-(4-chlorophenyl)-1-(2,4-dichlorophenyl)-4-methyl-1H-pyrazole-3-carboxamide] |  |  | 6.1 (≈ 10.7 µM) |  | 6.1 (≈ 10.7 µM) | 24.4 (≈ 42.6 µM) |  | good inhibitory effects | good inhibitory effects | good inhibitory effects
